Measurements published in patent US9427402B2, “Preparation for improving solubility of poorly soluble drug” (Shionogi & Co. Ltd., priority 2010, dated 2016).
≈ marks a conversion by molar mass, not a printed value. Where two headings read alike, the source gives them in different places.

Assay: Solubility evaluation of drugs (buffer solutions, 37° C., HPLC)
Assay type: physicochemical
Conditions: for solubility in words: acidic / neutral solvents, conclusion from Table 1; for solubility at 3 h: thermodynamic from solid
Procedure: A solvent was added to a drug, and ultrasonic irradiation treatment was performed on the resulting solution. The solution was agitated for 3 hours at 37° C. After 3 hours, the sample was filtered with a 0.45 μm filter, and the concentration of the drug in the filtrate was measured by a HPLC method. The solvents used were 100 mM of a citrate buffer solution (pH 4), 100 mM of a phosphate buffer (pH 7) and 100 mM of carbonic acid buffer solution (pH 9).

[1] = aqueous buffer, 100 mM citrate buffer solution (pH 4), 37° C., 3 hours, read-out: Solubility pH 4
[2] = aqueous buffer, 100 mM phosphate buffer (pH 7), 37° C., 3 hours, read-out: Solubility pH 7

Compound | solubility in words | solubility at 3 h [1] [µg/mL] | solubility at 3 h [2] [µg/mL] | solubility at 3 h (aqueous buffer, 100 mM carbonic acid buffer solution (pH 9), 37° C., 3 hours, read-out: Solubility pH 9) [µg/mL] | solubility at 3 h (buffer solution, 37 °C, pH 7, aqueous buffer, solvent with a pH of 7 or less, read-out: solubility in a solvent with a pH of 7 or less) [µg/mL]
COc1ccc2c(c1)c(CC(=O)O)c(C)n2C(=O)c1ccc(Cl)cc1 [Indomethacin, indomethacin, reference compound] | poorly soluble in an acidic solvent | 0.5 (≈ 1.4 µM) | 25 (≈ 69.9 µM) | – | –
CCCCCCO[C@@H](C)c1cccc(-c2csc(NC(=O)c3cc(Cl)c(/C=C(\C)C(=O)O)c(Cl)c3)n2)c1OC [Compound C-3B, (S)-(E)-3-(2,6-dichloro-4-{4-[3-(1-hexyloxyethyl)-2-methyloxyphenyl]thiazole 2-ylcarbamoyl}phenyl)-2-methylacrylic acid] | poorly soluble in an acidic and a neutral solvents | ≤ 0.0004 | ≤ 0.0004 | 7.7 (≈ 13 µM) | ≤ 0.0004
